How the values were obtained:
Type in all cases: cell-based, human
HT-29 cells [1] = experiment: Inhibition assay of cancer cell sphere-forming ability (Test Example 2), HT-29; conditions: Homo sapiens, HT-29, 96 h, HT-29 cells, Ultra-Low Attachment plate, serum-free DMEM/F12 with B27, EGF, bFGF, insulin, 4 days, Cell Titer-Glo; read-out: IC50 (μM) HT; concentration for 50% inhibition of cell proliferation (Sphere IC50 value)
How it was run: (§1)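 Human tumour lines (colon HCT-116, HT-29; hypopharynx FaDu) seeded on ultra-low-attachment plates to form spheres. Compound added at 0.1% final DMSO, cultured 4 days.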

cancer cells [2] = experiment: Inhibition test of cancer cell sphere-forming ability, overall statement on Table 2; conditions: summary of Table 2
Method: HCT-116 cells (derived from human colon adenocarcinoma), HT-29 cells (derived from human colon cancer), FaDu cells (derived from human hypopharynx cancer) were obtained from American Type Culture Collection (ATCC). HCT-116 cells and HT-29 cells were cultured using McCoy's 5a medium containing 10% fetal bovine serum (FBS) and 1% penicillin/streptomycin, and FaDu cells were cultured using MEM medium containing 10% FBS, 1% non-essential amino acid, 1% sodium pyruvate, and 1% penicillin/streptomycin, respectively, at 37° C. in the presence of 5% CO2. HCT-116 cells, HT-29 cells, and FaDu cells were seeded onto 384 Well Black Clear Bottom Ultra-Low Attachment Microplate (Corning Cat. No. 3827) using DMEM/F12 medium containing 2% B27 supplement (GIBCO), 20 ng/mL epidermal growth factor (EGF) (peprotech), 10 ng/mL basic fibroblast growth factor (bFGF) (peprotech), 5 μg/mL insulin (Sigma), and 1% penicillin/streptomycin to be 350-800 cells/well. A test substance was added so that the final concentration of DMSO is 0.1%, and then cultured for 4 days. The number of living cells was then counted using Cell Titer-Glo (registered trademark) Luminescent Cell Viability Assay (Promega) to calculate the concentration for 50% inhibition of cell proliferation of respective test substances (Sphere IC50 value; μM).

FaDu cells [3] = experiment: Inhibition assay of cancer cell sphere-forming ability (Test Example 2), FaDu; conditions: Homo sapiens, FaDu, 96 h, FaDu cells, Ultra-Low Attachment plate, serum-free DMEM/F12 with B27, EGF, bFGF, insulin, 4 days, Cell Titer-Glo; read-out: IC50 (μM) FaDu; concentration for 50% inhibition of cell proliferation (Sphere IC50 value)
How it was run: as §1

HCT-116 cells [4] = experiment: Inhibition assay of cancer cell sphere-forming ability (Test Example 2), HCT-116; conditions: Homo sapiens, HCT-116, 96 h, HCT-116 cells, Ultra-Low Attachment plate, serum-free DMEM/F12 with B27, EGF, bFGF, insulin, 4 days, Cell Titer-Glo; read-out: IC50 (μM) HCT; concentration for 50% inhibition of cell proliferation (Sphere IC50 value)
How it was run: as §1

FaDu cells [5] = experiment: Proliferation inhibition assay of cancer cells (Test Example 1), FaDu; conditions: Homo sapiens, FaDu, 96 h, FaDu cells, cultured for 4 days, Cell Titer-Glo; read-out: IC50 (μM) FaDu; concentration for 50% inhibition of cell proliferation (Bulk IC50 value)
How it was run: (§2)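 Test substance added at a final DMSO level of 0.1% and cells cultured 4 days; plating density 300-600 cells/well in 384-well plates, with human colon lines HCT-116 and HT-29 and hypopharyngeal line FaDu.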

cancer cells [6] = experiment: Proliferation inhibition test of cancer cells, overall statement on Table 1; conditions: summary of Table 1
Method: HCT-116 cells (derived from human colon adenocarcinoma), HT-29 cells (derived from human colon cancer), and FaDu cells (derived from human hypopharynx cancer) were obtained from American Type Culture Collection (ATCC). HCT-116 cells and HT-29 cells were cultured using McCoy's 5a medium containing 10% fetal bovine serum (FBS) and 1% penicillin/streptomycin, and FaDu cells were cultured using MEM medium containing 10% FBS, 1% non-essential amino acid, 1% sodium pyruvate, and 1% penicillin/streptomycin, respectively, at 37° C. in the presence of 5% CO2. After cells were seeded at 300-600 cells/well onto black μClear-plate 384 well (Greiner bio-one Cat. No. 781091), a test substance was added such that the final concentration of DMSO is 0.1%, and cultured for 4 days. The number of living cells was then counted using Cell Titer-Glo (Registered trademark) Luminescent Cell Viability Assay (Promega) to calculate a concentration for 50% inhibition of cell proliferation of respective test substances (Bulk IC50 value; μM).

HT-29 cells [7] = experiment: Proliferation inhibition assay of cancer cells (Test Example 1), HT-29; conditions: Homo sapiens, HT-29, 96 h, HT-29 cells, cultured for 4 days, Cell Titer-Glo; read-out: IC50 (μM) HT; concentration for 50% inhibition of cell proliferation (Bulk IC50 value)
How it was run: as §2

HCT-116 cells [8] = experiment: Proliferation inhibition assay of cancer cells (Test Example 1), HCT-116; conditions: Homo sapiens, HCT-116, 96 h, HCT-116 cells, cultured for 4 days, Cell Titer-Glo; read-out: IC50 (μM) HCT; concentration for 50% inhibition of cell proliferation (Bulk IC50 value)
How it was run: as §2

IC50 (HT-29 cells [1]) [µM] | IC50 (FaDu cells [3]) [µM] | IC50 (HCT-116 cells [4]) [µM] | IC50 (FaDu cells [5]) [µM] | IC50 (HT-29 cells [7]) [µM] | IC50 (HCT-116 cells [8]) [µM] | Structure (SMILES) | effect to inhibit cancer cell sphere-forming ability (in words) (cancer cells [2]) | effect on the inhibition of the proliferation of cancer cells (in words) (cancer cells [6])
0.06 | < 0.01 | 0.04 | < 0.01 | 0.08 | 0.04 | CC(O)c1cc2c(o1)C(=O)c1cnccc1C2=O (stereo not shown) [Example 49, 2-(1-hydroxyethyl)furo[3,2-g]isoquinoline-4,9-dione] | particularly strong effect | particularly strong effect
0.07 | < 0.01 | 0.02 | < 0.01 | 0.09 | < 0.01 | CC(=O)c1cc2c(s1)C(=O)c1cnccc1C2=O [Example 33, 2-acetylthieno[3,2-g]isoquinoline-4,9-dione] | particularly strong effect | particularly strong effect
< 0.01 | < 0.01 | < 0.01 | < 0.01 | 0.05 | < 0.01 | CC(F)c1cc2c(s1)C(=O)c1ccncc1C2=O (stereo not shown) [Example 30, 2-(1-fluoroethyl)thieno[2,3-g]isoquinoline-4,9-dione] | particularly strong effect | particularly strong effect
0.06 | < 0.01 | 0.06 | < 0.01 | 0.09 | 0.05 | O=C1c2cnccc2C(=O)c2sc(C(=O)N3CCOCC3)cc21 [Example 20, 2-(morpholin-4-ylcarbonyl)thieno[2,3-g]isoquinoline-4,9-dione] | particularly strong effect | particularly strong effect
0.04 | < 0.01 | 0.05 | 0.04 | 0.57 | 0.06 | O=C1c2ccncc2C(=O)c2c1oc(C(F)F)c2C(=O)N1CCOCC1 [Example 62, 2-(difluoromethyl)-3-(morpholine-4-carbonyl)furo[2,3-g]isoquinoline-4,9-dione] | particularly strong effect | particularly strong effect
0.05 | < 0.01 | 0.05 | < 0.01 | 0.32 | 0.04 | N#Cc1cc2c(s1)C(=O)c1ccncc1C2=O [Example 29, 4,9-dioxo-4,9-dihydrothieno[2,3-g]isoquinoline-2-carbonitrile] | particularly strong effect | particularly strong effect
0.05 | < 0.01 | 0.04 | < 0.01 | 0.05 | < 0.01 | O=C(NCC(F)F)c1cc2c(o1)C(=O)c1ccncc1C2=O [Example 46, N-(2,2-difluoroethyl)-4,9-dioxo-4,9-dihydrofuro[2,3-g]isoquinoline-2-carboxamide] | particularly strong effect | particularly strong effect
0.15 | < 0.01 | 0.22 | < 0.01 | 0.58 | 0.06 | O=C1c2cnccc2C(=O)c2sc(C(O)C3CC3)cc21 (stereo not shown) [Example 16, 2-[cyclopropyl(hydroxy)methyl]thieno[2,3-g]isoquinoline-4,9-dione] | particularly strong effect | particularly strong effect

— patent US10934309B2, “Tricyclic quinone derivative” (Boston Biomedical, Inc., priority 2014, dated 2021)
